Measurements reported in paper PMC3017052, “A Novel Peptide Derived from Human Apolipoprotein E Is an Inhibitor of Tumor Growth and Ocular Angiogenesis” (PLoS ONE, 2011).

Experiments:
HUVEC = assay type: cell-based, human; conditions: 48 h
Experimental: To confirm that apoEdp affects cell survival, cell viability was determined using the cell titer 96®AQuous One solution cell proliferation kit. ApoEdp treatment of HUVECs induced a dose-dependent inhibition of cell viability (Fig. 1A). […] To determine whether apoEdp suppresses tumor growth by directly affecting tumor cells, we performed a cell viability assay using human breast cancer MDA-MB-231 cell line in vitro and cell titer 96®AQuous One solution cell proliferation kit.
Figure 1 ApoEdp affects HUVEC survival but not MDA-MB-231. A. HUVEC: ApoEdp has a significant effect on VEGF-induced HUVEC viability. Cells were treated with apoEdp at the indicated concentrations and incubated with constant 50 ng/mL VEGF for 48 hr. All values were normalized to cell control of no VEGF and no apoEdp. Cell viability values (mean ± SEM) are expressed as % of the value of the VEGF control. B. MDA-MB-231: ApoEdp has no effect on MDA-MB-231viability. ApoEdp has no significant effect on MDA-MB-231 survival. Cells were treated with apoEdp at the indicated concentrations and incubated at 37°C for 2 days. Cell viability values (mean ± SEM) are expressed as % of the value of the control (untreated cells). […]
The effect of apoEdp on ED survival was evaluated. […] Two days later, cell numbers were determined using the CellTiter96 AQueous One solution cell proliferation kit (Promega, Madison, WI).

[1] = system: MDA-MB-231 tumor xenografts; test: Xenograft tumor growth assay in nude mice; assay type: in vivo
Experimental: In order to assess the in vivo effect of apoEdp on tumor growth, we established subcutaneous human breast cancer MDA-MB-231 tumor xenografts in nude mice. Once tumor size became ∼100 mm^3 in approximately 10 days, mice were randomly divided into two groups, and treated with PBS or apoEdp at 40 mg/kg/day for three consecutive days.
Figure 6 ApoEdp inhibits tumor growth in vivo. MDA-MB-231 breast cancer cells were used for anti-tumor studies. A suspension of 3×10^6 cells in 0.1 mL of PBS was injected in the right dorsal flank. Tumors were monitored weekly in two diameters with digital calipers. Tumor volumes were determined using A×B^2×0.52 (where A is the longest and B is the shortest diameter). Tumors were allowed to grow to ∼100 mm^3 and mice were randomized. Single intralesional administration daily of PBS or 40 mg/kg/day of apoEdp for 3 consecutive days was performed and then stopped. Representative photographs of mouse xenograft treated with (A) apoEdp or PBS are shown.
Female nu/nu mice (8–12 weeks old, weighing ∼20 g) were obtained from […] (Harlan, Indianapolis, IN). […] The growth of the tumor xenograft was evaluated by determining the tumor volume using digital calipers every 7 days. Tumor volume was calculated using the relationship A×B^2×0.52, where A is the longest diameter and B the shortest. […]

[2] = system: VEGF-induced phosphorylation of Flk1, c-Src, Akt, eNOS, FAK, Erk1/2 in HUVECs; test: Western blot of VEGF-induced phosphorylation of angiogenic signaling molecules; assay type: cell-based, human; conditions: HUVEC, apoEdp 6–50 µM pre-treated 1 hr, VEGF 10 ng/mL 10 min, n = 5
Experimental: Figure 7 Inhibition by apoEdp of VEGF-induced Flk-1. HUVECs were pre-treated with apoEdp at the indicated concentrations for 1 hr; VEGF (10 ng/mL) added and incubated at 37°C for 10 min, to measure the phosphorylation of Flk-1(7-A), c-Src(7-B), Akt(7-C), eNOS(7-D), FAK(7-E), and Erk1/2(7-F). Equal loading of total proteins was also measured as described in Materials and Methods. Values were normalized by arbitrarily setting the densitometry of control cell signals 1.0 (mean ± SEM, n = 5). The asterisks indicate significant differences compared with VEGF stimulation (*p<0.05, **p<0.01 and ***p<0.001).
Confluent HUVECs were grown in EBM-2 supplemented with 1% FBS for 24 hr and the medium was replaced with fresh low serum (1% FBS) media in the presence or absence of varying concentrations of apoEdp (6–50 µM). After 1 hr, VEGF was added to a concentration of 10 ng/mL and incubated for 10 min so that the phosphorylated forms of angiogenic signaling molecules could be detected. The cells were then lysed, quantified for protein concentration, and separated on 4–20% pre-cast SDS–PAGE gels. Western blots of control and treated lysates were performed with antibodies against the phospho form of Flk-1, c-Src, FAK, ERK1/2, Akt, and eNOS. […] All primary and secondary antibodies were obtained from Santa Cruz Biotechnology (Santa Cruz, CA).

## Ac-LRKLRKRLLLRKLRKRLL-NH2 [apoEdp]
HUVEC
  50% cytotoxicity (CC50), HUVEC viability: about 103 µM
[1]; nude (nu/nu) mice, 40 mg/kg/day intralesional for 3 consecutive days, compared to PBS-treated controls
  Tumor growth in MDA-MB-231 xenograft: significantly inhibited tumor growth
[1]; nude mice, 40 mg/kg/day for 3 days, data not shown
  Observable toxicity during treatment: no sign of observable toxicity
[2]
  VEGF-induced phosphorylation of Flk1, c-Src, Akt, eNOS, FAK and Erk1/2: significantly inhibited
